Measured values taken from US12617756B2 (ABIVAX, priority 2019, dated 2026).

System: RSV A2
Assay: Screening for RSV inhibition using Viral ToxGlo assay (cytopathic effect inhibition in HEp-2 cells)
Type: cell-based, Respiratory Syncytial Virus (RSV)
Conditions: human respiratory syncytial virus; RSV A2 in HEp-2 cells, MOI 0.5, 72h p.i., cytopathic effect inhibition relative to virus control, Viral ToxGlo luminescence
Protocol: Protocol for Screening Antiviral Compounds for RSV Inhibition and Cytotoxicity Using Viral ToxGlo Assay
HEp-2 cells were maintained in Eagle's minimum essential medium (EMEM) with Earle's BSS adjusted to contain 2 mM L-glutamine, 10% fetal bovine serum, 100 U/ml penicillin and 100 µg/ml streptomycin. For the purposes of the screening assay they were grown to 90% confluency, trypsinized and recovered. The trypsin was neutralised with cell culture media and cells were centrifuged at 150×g for 5 minutes before discarding the supernatant and resuspending cell pellet in assay media (EMEM with Earle's BSS adjusted to contain 2 mM L-glutamine, 2% fetal bovine serum and 100 U/ml penicillin and 100 µg/ml streptomycin). The cells were seeded into white clear-bottomed cell culture plates at a density of 1.5×10^4 cells/well in 50 μl and 4×10^3 cells/well in 25 μl for 96 well plates and 384 well plates respectively. For the media/background control column assay media only was added. Cell plates were placed in a humid chamber and incubated overnight at 37° C./5% CO2. After overnight incubation cells were checked for confluency and healthy appearance.
Test articles were made up at 10× test concentration in a maximum DMSO concentration of 10% (final assay concentration maximal 1% DMSO) and added to the cell plates in volumes of […] for 96 well plates and 5 μl for 384 well plates. For cell control and virus control wells the test article solvent only was added. Virus or assay media for cytotoxicity test wells and media/cell control wells was added immediately after test articles at an MOI of […] for 96 and 384 well plates respectively. Virus suspension was prepared by thawing RSV A2 frozen stocks and diluting to the required concentration of plaque forming units in assay media on ice.
Cell plates were further incubated inside a humid chamber for 72h p.i at 37° C./5% CO2. After the incubation period cells were observed under the microscope to check for characteristic cytopathic effect in virus control wells and healthy cells in the cell control wells. After plates were adjusted to room temperature 20/40 μl Viral ToxGlo (Promega) was added to each well of the 384/96 well cell plates. Plates were incubated at room temperature, protected from light on a plate rocker for 20 minutes before measuring the luminescence on a spectrophotometer (Biotek Synergy HTX).

Structure (SMILES)	EC50
CC(C)C1(NC(=O)c2cccc(Nc3ccc(C(=O)N=C4NCCN4)cc3C3CC3)c2)CC1 [Compound 7]	1.6 nM
CC1(NC(=O)c2cccc(Nc3ccc(C(=O)N=C4NCCN4)cc3C3CC3)c2)CC1 [Compound 14, 3-cyclopropyl-N-[(2Z)-imidazolidin-2-ylidene]-4-({3-[(1-methylcyclopropyl)carbamoyl]phenyl}amino)benzamide]	14.4 nM
O=C(N=C1NCCN1)c1ccc(Nc2cccc(C(=O)N3CCOCC3)c2Cl)c(C2CCOC2)c1 (centres unmarked) [Compound 15, 4-{[2-chloro-3-(morpholine-4-carbonyl)phenyl]amino}-N-[(2E)-imidazolidin-2-ylidene]-3-(oxolan-3-yl)benzamide]	14.9 nM
O=C(N=C1NCCN1)c1ccc(Nc2cccc(C(=O)N3CCOCC3)c2Cl)c(C(F)(F)F)c1 [Compound 16, 4-{[2-chloro-3-(morpholine-4-carbonyl)phenyl]amino}-N-[(2E)-imidazolidin-2-ylidene]-3-(trifluoromethyl)benzamide]	15.6 nM
CC(C)NC(=O)c1cccc(Nc2ccc(C(=O)/N=C3\NCCN3C)cc2C(C)(C)C)c1 [Compound 17, 3-tert-butyl-N-[(2E)-1-methylimidazolidin-2-ylidene]-4-({3-[(propan-2-yl)carbamoyl]phenyl}amino)benzamide]	19.8 nM
CC1(NC(=O)c2cccc(Nc3ccc(C(=O)N=C4NCCN4)cc3C3CCC3)c2)CC1 [Compound 18, 3-cyclobutyl-N-[(2Z)-imidazolidin-2-ylidene]-4-({3-[(1-methylcyclopropyl)carbamoyl]phenyl}amino)benzamide]	21.2 nM
CC(C)NC(=O)c1cccc(Nc2ccc(C(=O)N=C3NCCN3)cc2C(C)(C)C)c1 [Compound 19, 3-tert-butyl-N-[(2E)-imidazolidin-2-ylidene]-4-({3-[(propan-2-yl)carbamoyl]phenyl}amino)benzamide]	22.8 nM
CC(C)(C)C(=O)Nc1cccc(Nc2ccc(C(=O)N=C3NCCN3)cc2C(C)(C)C)c1 [Compound 20, 3-tert-butyl-4-{[3-(2,2-dimethylpropanamido)phenyl]amino}-N-[(2Z)-imidazolidin-2-ylidene]benzamide]	23.5 nM
CC1(C(=O)Nc2cccc(Nc3ccc(C(=O)N=C4NCCN4)cc3C3CC3)c2)CC1 [Compound 21, 3-cyclopropyl-N-[(2Z)-imidazolidin-2-ylidene]-4-{[3-(1-methylcyclopropaneamido)phenyl]amino}benzamide]	25.8 nM
O=C(N=C1NCCN1)c1ccc(Nc2cccc(OCCCC3CCCCC3)c2)c(C2CC2)c1 [Compound 22, 4-{[3-(3-cyclohexylpropoxy)phenyl]amino}-3-cyclopropyl-N-[(2E)-imidazolidin-2-ylidene]benzamide]	26 nM
O=C(N=C1NCCN1)c1ccc(Nc2cccc(OCC3COCCO3)c2Cl)c(C2CC2)c1 (centres unmarked) [Compound 23, 4-({2-chloro-3-[(1,4-dioxan-2-yl)methoxy]phenyl}amino)-3-cyclopropyl-N-[(2E)-imidazolidin-2-ylidene]benzamide]	30.3 nM
CN1CCN/C1=N\C(=O)c1ccc(Nc2cccc(C(=O)NC3(C)CC3)c2)c(C(C)(C)C)c1 [Compound 24, 3-tert-butyl-4-({3-[(1-methylcyclopropyl)carbamoyl]phenyl}amino)-N-[(2E)-1-methylimidazolidin-2-ylidene]benzamide]	31.7 nM
O=C(N=C1NCCN1)c1ccc(Nc2cccc(C(=O)NC3CC3)c2Cl)c(C2CC2)c1 [Compound 25, 4-{[2-chloro-3-(cyclopropylcarbamoyl)phenyl]amino}-3-cyclopropyl-N-[(2Z)-imidazolidin-2-ylidene]benzamide]	32.2 nM
CC(C)C(=O)Nc1cccc(Nc2ccc(C(=O)N=C3NCCN3)cc2C2CC2)c1 [Compound 26, 3-cyclopropyl-N-[(2E)-imidazolidin-2-ylidene]-4-{[3-(2-methylpropanamido)phenyl]amino}benzamide]	34.4 nM
COc1c(Nc2ccc(C(=O)N=C3NCCN3)cc2C2CC2)cccc1C(=O)NCCC(C)C [Compound 27, 3-cyclopropyl-N-[(2Z)-imidazolidin-2-ylidene]-4-({2-methoxy-3-[(3-methylbutyl)carbamoyl]phenyl}amino)benzamide]	41.4 nM
O=C(N=C1NCCN1)c1ccc(Nc2cccc(C(=O)NC3CCOC3)c2Cl)c(C2CC2)c1 (centres unmarked) [Compound 28, 4-({2-chloro-3-[(oxolan-3-yl)carbamoyl]phenyl}amino)-3-cyclopropyl-N-[(2Z)-imidazolidin-2-ylidene]benzamide]	42.1 nM
C=C(C)c1cc(C(=O)N=C2NCCN2)ccc1Nc1cccc(C(=O)NCCC(C)C)c1 [Compound 29, N-[(2E)-imidazolidin-2-ylidene]-4-({3-[(3-methylbutyl)carbamoyl]phenyl}amino)-3-(prop-1-en-2-yl)benzamide]	42.3 nM
CC(C)(O)c1cc(C(=O)N=C2NCCN2)ccc1Nc1cccc(C(=O)N2CCOCC2)c1C(F)(F)F [Compound 30, 3-(2-hydroxypropan-2-yl)-N-[(2E)-imidazolidin-2-ylidene]-4-{[3-(morpholine-4-carbonyl)-2-(trifluoromethyl)phenyl]amino}benzamide]	42.7 nM
CCC1(NC(=O)c2cccc(Nc3ccc(C(=O)N=C4NCCN4)cc3C3CC3)c2)CC1 [Compound 31, 3-cyclopropyl-4-({3-[(1-ethylcyclopropyl)carbamoyl]phenyl}amino)-N-[(2Z)-imidazolidin-2-ylidene]benzamide]	47.7 nM
CC(C)NC(=O)c1cc(F)cc(Nc2ccc(C(=O)N=C3NCCN3)cc2C2CC2)c1 [Compound 32, 3-cyclopropyl-4-({3-fluoro-5-[(propan-2-yl)carbamoyl]phenyl}amino)-N-[(2Z)-imidazolidin-2-ylidene]benzamide]	49.2 nM
CC(C)(C)c1cc(C(=O)N=C2NCCN2)ccc1Nc1cccc(C(=O)NCCC2CCCOC2)c1 (centres unmarked) [Compound 33, 3-tert-butyl-N-[(2E)-imidazolidin-2-ylidene]-4-[(3-{[2-(oxan-3-yl)ethyl]carbamoyl}phenyl)amino]benzamide]	50.2 nM
CC(C)NC(=S)c1cccc(Nc2ccc(C(=O)N=C3NCCN3)cc2C2CC2)c1 [Compound 34, 3-cyclopropyl-N-[(2Z)-imidazolidin-2-ylidene]-4-({3-[(propan-2-yl)carbamothioyl]phenyl}amino)benzamide]	50.4 nM
CC(C)(C)c1cc(C(=O)N=C2NCCN2)ccc1Nc1cccc(C(=O)NCCC2CCCCO2)c1 (centres unmarked) [Compound 35, 3-tert-butyl-N-[(2E)-imidazolidin-2-ylidene]-4-[(3-{[2-(oxan-2-yl)ethyl]carbamoyl}phenyl)amino]benzamide]	51.6 nM
CC(C)NC(=O)c1cccc(Nc2ccc(C(=O)/N=C3\NCCN3C)cc2C2CC2)c1 [Compound 36, 3-cyclopropyl-N-[(2E)-1-methylimidazolidin-2-ylidene]-4-({3-[(propan-2-yl)carbamoyl]phenyl}amino)benzamide]	55.4 nM
CC(C)C(=O)Nc1cccc(Nc2ccc(C(=O)N=C3NCCN3)cc2C(C)(C)C)c1 [Compound 37, 3-tert-butyl-N-[(2E)-imidazolidin-2-ylidene]-4-{[3-(2-methylpropanamido)phenyl]amino}benzamide]	55.5 nM
CC(C)N(C)C(=O)c1cccc(Nc2ccc(C(=O)N=C3NCCN3)cc2C(C)(C)C)c1 [Compound 38, 3-tert-butyl-N-[(2E)-imidazolidin-2-ylidene]-4-({3-[methyl(propan-2-yl)carbamoyl]phenyl}amino)benzamide]	63.7 nM
